Test [1] relates to NOXA expression in MOLM13 xenograft. Nature of the test: Western blot for NOXA from MOLM13 xenograft treated with decitabine. It counts as in vivo. To be noted: decitabine 1 mg/kg IP, 24 hours. As for the experimental part:
(§1) In the decitabine experiments (FIGS. 24 and 36), the MV-4-11 AML cell line and MOLM13 cell line model for secondary AML (prior MDS) were used. MV-4-11 AML cells (or MOLM13 cells as indicated) were treated with indicated concentrations of decitabine for indicated times, and protein was assessed by Western blot for NOXA expression. […] FIGS. 24A and 24C are Western blots and FIG. 24B is a bar graph of mRNA concentrations. […] The Western blot was prepared from a MOLM13 xenograft treated with decitabine at 1 mg/kg IP for 24 hours.
Background: Immunoblotting shows a protein as a band on a membrane.

Test [2] relates to MOLM13 xenograft model. Nature of the test: MOLM13 xenograft model, tumor volume and survival. In kind it is in vivo. Conditions: aggressive daily dosing, tumor bearing mice. The protocol:
FIGS. 31A and 31B show results from sequential dosing of alvocidib and HMAs in a MOLM13 model for MDS/sAML. HMA dosing sensitized AML cells to sequential dosing and improved survival in vivo. Alvocidib, azacytidine, and decitabine activity were assessed in the MOLM13 xenograft model. FIG. 31A is a plot of tumor volume over time and FIG. 31B is a plot of percent survival over time. Mice were dosed with alvocidib, qdx2, and/or an HMA, qdx3 on a weekly basis. Doses are indicated in mg/kg (mpk).
[…] show results from aggressive daily dosing of alvocidib and decitabine in the MOLM13 model. Tumor bearing mice were treated. Doses and schedule are indicated. FIG. 32A plots tumor volume following treatment and FIG. 32B plots body weight following treatment.

Test [3] deals with NOXA expression in MV-4-11 AML cells / MOLM13 cells. Nature of the test: Western blot for NOXA expression in AML cell lines treated with HMAs. It counts as cell-based. As for the experimental part: as §1
In the azacitidine experiments (FIG. 25), MV-4-11 AML cells were treated with indicated concentrations of azacitidine for 24 hours and protein assessed by Western blot for NOXA expression.

Test [4] deals with MV-4-11 cells. Nature of the test: MCL-1 dependency assay (T-MS1, Dioc6) in MV-4-11 cells. In kind it is cell-based. Conditions: for MCL-1 dependency versus DMSO controls: 24 hours.
The test system of test [5] is CD34+ MDS BMMNC. Briefly: Caspase-Glo 3/7 apoptotic activity in CD34+ MDS BMMNC (Example 16). It counts as cell-based, human. To be noted: then DMSO or alvocidib 0.1 μM 6 hours. As for the experimental part:
A pharmacodynamic maker study was performed for azaditidine and alvocidib using MDS patient-derived BMMNC from Cureline. CD34^+ cells were isolated by CD34 MicroBead Kit (Miltenyi Biotec) and cultured in StemSpan™ SFEM II with StemSpan™ CD34^+ Expansion Supplement ([…] Technologies). Cells were seeded in 6-well plates and treated with DMSO or azacitidine (0.3 or 0.6 μM) for 24 hours. Following that, DMSO or alvocidib (0.1 μM) was sequentially added, and the cells were incubated for an additional 6 hours. Protein was extracted using RIPA buffer with protease and phosphatase inhibitor cocktail. Protein expression was assessed by Western blot using NOXA (CST, Cat #14766S), MCL-1(CST, Cat #392245) and β-actin (CST, Cat #4967L) antibodies. Apoptotic activity was assessed by Caspase-Glo® 3/7 assay (Promega).

In test [6] the test system is CD34+ MDS BMMNC. Nature of the test: Caspase-Glo 3/7 apoptotic activity in CD34+ MDS BMMNC (Example 17 efficacy study). It counts as cell-based, human. To be noted: azacitidine 100 nM 24 hours, alvocidib 100 nM 24 hours. The protocol: CD34^+ cells were isolated by CD34 MicroBead Kit (Miltenyi Biotec) and cultured in StemSpan™ SFEM II with StemSpan™ CD34^+ Expansion Supplement (STEMCELL Technologies). […] Apoptotic activity was assessed by Caspase-Glo® 3/7 assay (Promega).

Test [7] deals with NOXA and MCL-1 expression in CD34+ MDS BMMNC. Nature of the test: Pharmacodynamic marker study, Western blot NOXA/MCL-1 in CD34+ MDS BMMNC. In kind it is cell-based, human. Conditions: Patient 0219; azacitidine 0.3 or 0.6 μM 24 hours, then alvocidib 0.1 μM 6 hours. As for the experimental part:
A pharmacodynamic maker study was performed for azaditidine and alvocidib using MDS patient-derived BMMNC from Cureline. CD34^+ cells were isolated by CD34 MicroBead Kit (Miltenyi Biotec) and cultured in StemSpan™ SFEM II with StemSpan™ CD34^+ Expansion Supplement (STEMCELL Technologies). […] Protein was extracted using RIPA buffer with protease and phosphatase inhibitor cocktail. Protein expression was assessed by Western blot using NOXA (CST, Cat #14766S), MCL-1(CST, Cat #392245) and β-actin (CST, Cat #4967L) antibodies. Apoptotic activity was assessed by Caspase-Glo® 3/7 assay (Promega).

Test [8] has as its system MDS patient-derived BMMCs (blasts). Briefly: T-MS1 based MCL-1 dependency assay on MDS patient blasts. In kind it is cell-based, human. The protocol: To determine the patients' cells' dependency on MCL-1 anti-apoptotic protein for survival, the MCL-1 binding protein, MS I with N-terminal modifications for improved cell penetrance was utilized. The modified peptide is referred to as T-MS1. When added to cells, T-MS1 crosses the plasma membrane and antagonizes MCL-I, leading to mitochondrial outer membrane […] (MOMP) formation and subsequently, depolarization of the mitochondria. Mitochondrial potential was assessed using the cationic dye, DiOC2(3), which accumulates in negatively-charged, healthy mitochondria. Fresh or previously frozen MDS bone marrow cells were treated with azacitidine or DMSO control in media containing RPMI+10% FBS+pen/strep for 48 hours prior to being interrogated with T-MS1. After blocking and staining with antibody cocktail to gate on MDS blasts, T-MS1 was added and cells were incubated for 30 minutes at 37° C. After T-MS1 treatment, cells were washed and stained with cationic dye, Dioc6, for 90 minutes to assess mitochondrial depolarization via flow cytometric analysis. Priming % was calculated using the formula: […]
For concordance with prior priming values, an additional calibration factor of 1.6 was applied to patient priming values.
To determine the patients' cells' MCL-1 dependency following treatment with azacitidine, MDS patient-derived BMMCs were treated with DMSO, 0.3 μM azacitidine, 1 μM azacitidine or 2.5 μM azacitidine for 48-72 hours before being assessed by the MCL-1 dependency assay.

Test [9] relates to MDS BMMC's. Briefly: Cell viability following 48 hours treatment (FIGS. 26A/26B; IC50 in MDS BMMC's). In kind it is cell-based. From the text: Additionally, an assay has been tested in bone marrow mononuclear cells (BMMCs) from AML and MDS patients to examine MCL-1 dependency prior to therapy with alvocidib. […] Combination studies are currently under investigation to determine whether enhanced anti-cancer activity is observed through pharmacologic downregulation of MCL-1 via CDK9 inhibition by alvocidib and upregulation of the MCL-1 antagonist NOXA after HMA exposure.
FIGS. 26A and 26B are scatter plots showing cell viability following 48 hours treatment at indicated concentrations of azacytidine (alone) or alvocidib (alone). FIG. 26A is a plot of cell viability following 48-hour treatment against indicated concentrations of azacitidine. […] FIG. 26B is a plot of cell viability following 48-hour treatment against indicated concentrations of alvocidib.

Each structure is given as a SMILES string.

Take `Nc1ncn([C@H]2C[C@H](O)[C@@H](CO)O2)c(=O)n1` [decitabine]: the “NOXA expression (Western blot) in xenograft” value in [1] is given as “increase in NOXA expression”. Moreover, the “tumor growth inhibition (% TGI)” value in [2] came to 58.6%. The “NOXA expression in AML cell line models” value in test [3] is on record as “increased”. The “NOXA expression (Western blot), decitabine” value in test [3] (MV-4-11 AML cells or MOLM13 cells, indicated times) is on record as “time-dependent increase”.
A word on the IC50: it is the point on the concentration scale where inhibition reaches its midpoint. `Nc1ncn([C@@H]2O[C@H](CO)[C@@H](O)[C@H]2O)c(=O)n1` [azacitidine]: the “MCL-1 dependency versus DMSO controls” value in test [4] is reported as “sensitized MV4-11 cells to MCL-1 dependent apoptosis”; in [4] (listed as azacytidine) it was “increased MCL-1 dependency”. The MCL-1 dependence in test [4] (azacitidine 2.5 μM) was found to be 29.6%. For the same compound, the “increase in apoptotic activity versus DMSO” value in [5] (azacitidine 0.3 μM 24 hours) stood at 52%; in test [5] (azacitidine 0.6 μM 24 hours) it was 62%. Also, the “increase of apoptotic activity versus DMSO” value in [6] (Patient 0219) is listed as 20%; in [6] (Patient 1115 (high-risk MDS)), 35%. Also, the “NOXA and MCL-1 protein expression (Western blot) versus DMSO” value in [7] is “induced NOXA expression”. Moreover, the “priming trend across MDS bone marrow samples” value in test [8] (0.3, 1 and 2.5 μM azacitidine) was “dose-dependent increase in priming”. Also, the percent priming in test [8] (Patient 0216's blasts, 1 μM azacitidine) is reported as 115.3%; in [8] (Patient 0216's blasts, 2.5 μM azacitidine) it was 132.1%; in test [8] (Patient 0515's blasts, 1 μM azacitidine), 82.1%; in [8] (Patient 0515's blasts, 2.5 μM azacitidine), 81.6%; in test [8] (Patient 1060's blasts, 72-hour, 0.3 μM azacitidine) it was 45.8%; in test [8] (Patient 1060's blasts, 72-hour, 1 μM azacitidine), 60.9%. Further, in test [8] (one patient sample), the “maximum increase in priming” value is 35%. Also, the “NOXA expression in AML cell line models” value in [3] is “increased”. In test [3] (MV-4-11 AML cells, 24 hours), the “NOXA expression (Western blot), azacitidine” value is reported as “dose-dependent increase”. The IC50 in [9] is roughly 1000 nM.

The values are drawn from patent US20240382473A1, “Combination Therapies for Treatment of Myelodysplastic Syndrome” (priority 2019, published 2024).
